{"source": "patent US8741653B2", "about": "“Single recombination system and methods of use” (priority 2008, dated 2014)", "key": {"MVA": {"test_system": "MVA", "format": "cell-based, Modified Vaccinia Ankara virus"}}, "data": [{"smiles": "CN(C)[C@@H]1C(O)=C(C(N)=O)C(=O)[C@@]2(O)C(O)=C3C(=O)c4c(O)cccc4[C@@](C)(O)[C@H]3C[C@@H]12", "note": "[tetracycline]", "values": [{"measurement": "cytotoxic effect of tetracycline", "setting": "CEF cells", "value": "pronounced cytotoxic effect"}, {"measurement": "reduction of MVA replication", "setting": "MVA", "value": 1, "unit": "log"}]}]}
